Test results published in BigSolDB 2.1.

CSCC[C@H](NC(C)=O)C(=O)O
solubility (mole fraction)
Conditions | 283.15 K | 288.15 K | 293.15 K | 298.15 K | 303.15 K | 308.15 K | 313.15 K | 318.15 K | 323.15 K
in 2-butanone | 0.0192 | 0.0243 | 0.0316 | 0.0408 | 0.0546 | 0.0764 | 0.112 | 0.135 | 0.18
in acetone | 0.0372 | 0.0524 | 0.0643 | 0.0899 | 0.118 | 0.154 | 0.195 | 0.231 | 0.283
in acetonitrile | 0.00684 | 0.00873 | 0.0119 | 0.0167 | 0.0238 | 0.0354 | 0.0549 | 0.0912 | 0.154
in dimethyl carbonate | 0.00222 | 0.00268 | 0.00369 | 0.00531 | 0.00614 | 0.00835 | 0.0109 | 0.0151 | 0.0216
in ethanol | 0.0966 | 0.121 | 0.145 | 0.163 | 0.186 | 0.222 | 0.285 | 0.343 | 0.409
in ethyl acetate | 0.00553 | 0.00645 | 0.00846 | 0.0101 | 0.0134 | 0.0169 | 0.022 | 0.0284 | 0.0399
in methyl acetate | 0.00709 | 0.00877 | 0.0113 | 0.015 | 0.0193 | 0.026 | 0.0358 | 0.052 | 0.0821
in n-butanol | 0.0531 | 0.0697 | 0.084 | 0.103 | 0.121 | 0.145 | 0.175 | 0.207 | 0.242
in n-butyl acetate | 0.00312 | 0.00346 | 0.00409 | 0.00536 | 0.00667 | 0.00833 | 0.0103 | 0.0137 | 0.0171
in n-pentanol | 0.0417 | 0.05 | 0.0609 | 0.0755 | 0.0901 | 0.113 | 0.14 | 0.167 | 0.212
in n-propanol | 0.0668 | 0.0825 | 0.099 | 0.127 | 0.158 | 0.191 | 0.237 | 0.281 | 0.327
in n-propyl acetate | 0.0037 | 0.00414 | 0.00487 | 0.00685 | 0.00834 | 0.0107 | 0.013 | 0.0171 | 0.021
